# Target: T1, USP28 (His-tagged USP28-FL-mammalian) (Homo sapiens, UniProt Q96RU2)
# T1 construct: Expression of USP28 (1-1077)-TEV-6*His (pTT5 vector); made in house; host or cells: Expi293f cells (pTT5 vector)
# T1 sequence (Q96RU2 1-1077): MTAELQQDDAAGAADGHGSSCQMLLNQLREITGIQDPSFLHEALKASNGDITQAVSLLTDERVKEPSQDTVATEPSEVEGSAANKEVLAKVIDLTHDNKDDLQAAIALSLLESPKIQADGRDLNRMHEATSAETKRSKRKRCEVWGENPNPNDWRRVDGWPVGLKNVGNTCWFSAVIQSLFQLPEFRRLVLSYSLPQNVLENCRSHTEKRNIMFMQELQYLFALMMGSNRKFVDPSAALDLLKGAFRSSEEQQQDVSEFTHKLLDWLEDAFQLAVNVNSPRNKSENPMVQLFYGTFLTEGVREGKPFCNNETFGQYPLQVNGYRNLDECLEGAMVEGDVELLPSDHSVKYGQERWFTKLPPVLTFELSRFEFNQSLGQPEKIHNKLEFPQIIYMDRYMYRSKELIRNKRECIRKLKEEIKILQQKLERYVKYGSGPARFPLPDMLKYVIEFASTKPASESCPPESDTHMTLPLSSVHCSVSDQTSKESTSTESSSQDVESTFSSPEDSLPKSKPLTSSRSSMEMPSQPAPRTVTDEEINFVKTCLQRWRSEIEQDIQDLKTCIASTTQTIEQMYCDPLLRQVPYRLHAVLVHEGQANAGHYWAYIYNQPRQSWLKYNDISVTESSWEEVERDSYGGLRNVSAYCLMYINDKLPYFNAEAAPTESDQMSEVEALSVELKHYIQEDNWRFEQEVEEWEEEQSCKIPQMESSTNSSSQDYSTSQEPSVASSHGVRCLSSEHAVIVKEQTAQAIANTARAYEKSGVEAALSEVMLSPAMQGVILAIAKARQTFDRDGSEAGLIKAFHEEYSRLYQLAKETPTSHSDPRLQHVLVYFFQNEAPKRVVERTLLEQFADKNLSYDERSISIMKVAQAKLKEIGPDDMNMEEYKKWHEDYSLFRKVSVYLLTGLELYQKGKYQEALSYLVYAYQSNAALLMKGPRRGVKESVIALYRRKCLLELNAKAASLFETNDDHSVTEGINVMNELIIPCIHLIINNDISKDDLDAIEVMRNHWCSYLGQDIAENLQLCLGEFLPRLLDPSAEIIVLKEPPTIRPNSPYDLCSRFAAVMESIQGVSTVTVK
# Test: Ubiquitin-Rhodamine 110 Assay for USP28 Activity, Example A-1(a)
# Type: biochemical
# Conditions: Ubiquitin-Rhodamine 110 assay, Example A-1(a); read-out: USP28 A-1(a) IC50 range
# In short: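 Full-length His-tagged human USP28 (1-1077, Expi293f-expressed), […], with 25 nM Ub-Rh110 (<<Km) in pH 8.0 Tris buffer with BME, BGG, Triton X-100. 10-point dilutions (25 μM-1.3 nM), 45 min at room temperature, citric acid stop, fluorescence 485/535 nm; IC50 by 4-parameter fit.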
row,Compound,IC50 [nM]
1,"CO[C@@]1(C)CN(c2ccc3c(c2)OC[C@H](NC(=O)c2sc4nc(C)ccc4c2N)C3)C[C@@H]1N [Example 281, 3-amino-N-[(3R)-7-[(3S,4S)-4-amino-3-methoxy-3-methylpyrrolidin-1-yl]-3,4-dihydro-2H-1-benzopyran-3-yl]-6-methylthieno[2,3-b]pyridine-2-carboxamide]",1 to 50
2,"CO[C@]1(C)CN(c2ccc3c(c2)OC[C@H](NC(=O)c2sc4nc(C)ccc4c2N)C3)C[C@H]1N [Example 282, 3-amino-N-[(3R)-7-[(3R,4R)-4-amino-3-methoxy-3-methylpyrrolidin-1-yl]-3,4-dihydro-2H-1-benzopyran-3-yl]-6-methylthieno[2,3-b]pyridine-2-carboxamide]",1 to 50
3,"CO[C@@H]1[C@@H](N)CN(c2ccc3c(c2)OC[C@H](NC(=O)c2sc4nc(C)ccc4c2N)C3)[C@H]1C [Example 283, 3-amino-N-[(3R)-7-[(2S,3R,4S)-4-amino-3-methoxy-2-methylpyrrolidin-1-yl]-3,4-dihydro-2H-1-benzopyran-3-yl]-6-methylthieno[2,3-b]pyridine-2-carboxamide]",1 to 50
4,"CO[C@H]1[C@H](N)CN(c2ccc3c(c2)OC[C@H](NC(=O)c2sc4nc(C)ccc4c2N)C3)[C@@H]1C [Example 284, 3-amino-N-[(3R)-7-[(2R,3S,4R)-4-amino-3-methoxy-2-methylpyrrolidin-1-yl]-3,4-dihydro-2H-1-benzopyran-3-yl]-6-methylthieno[2,3-b]pyridine-2-carboxamide]",1 to 50
5,"Cc1ccc2c(N)c(C(=O)N[C@H]3CCc4nc(N5C[C@H](OC6CCC6)[C@@H](N)C5)ccc4C3)sc2n1 [Example 285, 3-amino-N-[(6S)-2-[(3S,4S)-3-amino-4-cyclobutoxypyrrolidin-1-yl]-5,6,7,8-tetrahydroquinolin-6-yl]-6-methylthieno[2,3-b]pyridine-2-carboxamide]",50 to 200
6,"CO[C@H]1CN(c2ccc3c(n2)OC[C@H](NC(=O)c2sc4nc(C)cc(C)c4c2N)C3)C[C@@H]1N [Example 286, 3-amino-N-[(3R)-7-[(3S,4S)-3-amino-4-methoxypyrrolidin-1-yl]-2H,3H,4H-pyrano[2,3-b]pyridin-3-yl]-4,6-dimethylthieno[2,3-b]pyridine-2-carboxamide]",50 to 200
7,"Cc1ccc2c(N)c(C(=O)N[C@H]3COc4nc(N5C[C@H](OC(C)C)[C@@H](N)C5)ccc4C3)sc2n1 [Example 287, 3-amino-N-[(3R)-7-[(3S,4S)-3-amino-4-(propan-2-yloxy)pyrrolidin-1-yl]-2H,3H,4H-pyrano[2,3-b]pyridin-3-yl]-6-methylthieno[2,3-b]pyridine-2-carboxamide]",200 to 2000
8,"Cc1ccc2c(N)c(C(=O)N[C@H]3COc4cc(N5CC[C@@H](N)C5)ccc4C3)sc2n1 [Example 288, 3-amino-N-[(3R)-7-[(3R)-3-aminopyrrolidin-1-yl]-3,4-dihydro-2H-1-benzopyran-3-yl]-6-methylthieno[2,3-b]pyridine-2-carboxamide]",1 to 50
9,"CO[C@]12CNC[C@H]1CN(c1ccc3c(c1)OC[C@H](NC(=O)c1sc4nc(C)ccc4c1N)C3)C2 [Example 291, N-[(3R)-7-[(3aS,6aS)-3a-methoxy-octahydropyrrolo[3,4-c]pyrrol-2-yl]-3,4-dihydro-2H-1-benzopyran-3-yl]-3-amino-6-methylthieno[2,3-b]pyridine-2-carboxamide]",1 to 50
10,"CO[C@@]12CNC[C@@H]1CN(c1ccc3c(c1)OC[C@H](NC(=O)c1sc4nc(C)ccc4c1N)C3)C2 [Example 292, N-[(3R)-7-[(3aR,6aR)-3a-methoxy-octahydropyrrolo[3,4-c]pyrrol-2-yl]-3,4-dihydro-2H-1-benzopyran-3-yl]-3-amino-6-methylthieno[2,3-b]pyridine-2-carboxamide]",1 to 50
11,"CO[C@H]1CN(c2ccc3c(n2)CC[C@H](NC(=O)c2sc4nc(C)cc(C)c4c2N)C3)C[C@@H]1NC(C)=O [Example 293, 3-amino-N-[(6S)-2-[(3S,4S)-3-acetamido-4-methoxypyrrolidin-1-yl]-5,6,7,8-tetrahydroquinolin-6-yl]-4,6-dimethylthieno[2,3-b]pyridine-2-carboxamide]",50 to 200
12,"Cc1ccc2c(N)c(C(=O)N[C@H]3COc4cc(N5C[C@H](C(F)F)[C@@H](N)C5)ccc4C3)sc2n1 [Example 294, 3-amino-N-[(3R)-7-[(3R,4S)-3-amino-4-(difluoromethyl)pyrrolidin-1-yl]-3,4-dihydro-2H-1-benzopyran-3-yl]-6-methylthieno[2,3-b]pyridine-2-carboxamide]",1 to 50
13,"Cc1ccc2c(N)c(C(=O)N[C@H]3COc4cc(N5C[C@@H](N)[C@H](C(F)F)C5)ccc4C3)sc2n1 [Example 295, 3-amino-N-[(3R)-7-[(3S,4R)-3-amino-4-(difluoromethyl)pyrrolidin-1-yl]-3,4-dihydro-2H-1-benzopyran-3-yl]-6-methylthieno[2,3-b]pyridine-2-carboxamide]",1 to 50
14,"COC[C@@H]1CN(c2ccc3c(n2)CC[C@H](NC(=O)c2sc4nc(C)cc(C)c4c2N)C3)C[C@@H]1N [Example 296, 3-amino-N-[(6S)-2-[(3R,4R)-3-amino-4-(methoxymethyl)pyrrolidin-1-yl]-5,6,7,8-tetrahydroquinolin-6-yl]-4,6-dimethylthieno[2,3-b]pyridine-2-carboxamide-]",50 to 200
15,"COC[C@H]1CN(c2ccc3c(n2)CC[C@H](NC(=O)c2sc4nc(C)cc(C)c4c2N)C3)C[C@H]1N [Example 297, 3-amino-N-[(6S)-2-[(3S,4S)-3-amino-4-(methoxymethyl)pyrrolidin-1-yl]-5,6,7,8-tetrahydroquinolin-6-yl]-4,6-dimethylthieno[2,3-b]pyridine-2-carboxamide]",1 to 50
16,"COC[C@@H]1CN(c2ccc3c(n2)CC[C@H](NC(=O)c2sc4nc(C)cnc4c2N)C3)C[C@@H]1N [Example 298, 7-amino-N-[(6S)-2-[(3R,4R)-3-amino-4-(methoxymethyl)pyrrolidin-1-yl]-5,6,7,8-tetrahydroquinolin-6-yl]-3-methylthieno[2,3-b]pyrazine-6-carboxamide]",200 to 2000
17,"COC[C@H]1CN(c2ccc3c(n2)CC[C@H](NC(=O)c2sc4nc(C)cnc4c2N)C3)C[C@H]1N [Example 299, 7-amino-N-[(6S)-2-[(3S,4S)-3-amino-4-(methoxymethyl)pyrrolidin-1-yl]-5,6,7,8-tetrahydroquinolin-6-yl]-3-methylthieno[2,3-b]pyrazine-6-carboxamide]",50 to 200
18,"COC[C@@H]1CN(c2nc3c(cc2F)C[C@@H](NC(=O)c2sc4nc(C)ccc4c2N)CC3)C[C@@H]1N [Example 300, 3-amino-N-[(6S)-2-[(3R,4R)-3-amino-4-(methoxymethyl)pyrrolidin-1-yl]-3-fluoro-5,6,7,8-tetrahydroquinolin-6-yl]-6-methylthieno[2,3-b]pyridine-2-carboxamide]",200 to 2000
19,"COC[C@H]1CN(c2nc3c(cc2F)C[C@@H](NC(=O)c2sc4nc(C)ccc4c2N)CC3)C[C@H]1N [Example 301, 3-amino-N-[(6S)-2-[(3S,4S)-3-amino-4-(methoxymethyl)pyrrolidin-1-yl]-3-fluoro-5,6,7,8-tetrahydroquinolin-6-yl]-6-methylthieno[2,3-b]pyridine-2-carboxamide]",> 2000
20,"Cc1ccc2c(N)c(C(=O)N[C@H]3COc4cc(N5C[C@@H]6CCN[C@@H]6C5)ccc4C3)sc2n1 [Example 304, N-[(3R)-7-[(3aS,6aS)-octahydropyrrolo[3,4-b]pyrrol-5-yl]-3,4-dihydro-2H-1-benzopyran-3-yl]-3-amino-6-methylthieno[2,3-b]pyridine-2-carboxamide]",1 to 50
21,"Cc1ccc2c(N)c(C(=O)N[C@H]3COc4cc(N5C[C@H]6CCN[C@H]6C5)ccc4C3)sc2n1 [Example 305, N-[(3R)-7-[(3aR,6aR)-octahydropyrrolo[3,4-b]pyrrol-5-yl]-3,4-dihydro-2H-1-benzopyran-3-yl]-3-amino-6-methylthieno[2,3-b]pyridine-2-carboxamide]",1 to 50
22,"Cc1ccc2c(N)c(C(=O)N[C@H]3COc4cc(N5CCC6(CNC6)C5)ccc4C3)sc2n1 [Example 306, 3-amino-N-[(3R)-7-{2,6-diazaspiro[3.4]octan-6-yl}-3,4-dihydro-2H-1-benzopyran-3-yl]-6-methylthieno[2,3-b]pyridine-2-carboxamide]",1 to 50
